Patent US5541163A, “Renin inhibiting N-(2-amino-2-oxoethyl)butanediamide derivatives” (Bio-Mega/Boehringer Ingelheim Research Inc., priority 1993, dated 1996)

Biological target: T1, human renin (Homo sapiens, UniProt P00797)
T1 construct: A human plasma pool is used as the source of both the substrate (angiotensinogen) and the enzyme (renin); from tissue; host or cells: human plasma pool
T1 sequence (P00797 67-406): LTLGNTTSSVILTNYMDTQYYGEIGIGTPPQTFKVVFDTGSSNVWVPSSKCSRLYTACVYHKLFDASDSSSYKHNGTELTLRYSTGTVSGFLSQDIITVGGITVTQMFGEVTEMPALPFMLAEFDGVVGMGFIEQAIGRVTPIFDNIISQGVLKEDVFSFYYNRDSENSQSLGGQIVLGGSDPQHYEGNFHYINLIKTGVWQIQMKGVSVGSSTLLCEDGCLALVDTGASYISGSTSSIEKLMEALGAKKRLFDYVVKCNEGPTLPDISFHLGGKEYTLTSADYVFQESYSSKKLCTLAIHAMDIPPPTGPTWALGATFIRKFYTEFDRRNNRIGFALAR
Test: Plasma renin assay (inhibition of human renin, angiotensin I by RIA)
Format: biochemical
Details: human plasma pool, pH 6.0, 2 h incubation at 37°
Procedure: The assay is performed as follows: The test compound (i.e. the inhibitor) is dissolved in dimethylsulfoxide (1 mM stock solution) and diluted with an aqueous buffer solution of 270 mM 2-(N-morpholino)ethanesulfonic acid and 1% human serum albumin (pH 5.85, also containing dimercaprol and 8-hydroxyquinoline sulfate in accordance with the instructions of the RIA kit noted below) to give an assay mixture in which the final dimethylsulfoxide content is 1% (v/v).
A human plasma pool is used as the source of both the substrate (angiotensinogen) and the enzyme (renin). The reaction is initiated by the addition of 50 μL of human plasma pool to 50 μL of various concentrations of inhibitor in the 1% dimethylsulfoxide assay buffer. The plasma renin activity is measured by the amount of angiotensin I generated at pH 6.0 following a 2 h incubation at 37°.
Quantitation of angiotensin I is performed by radioimmunoassay (RIA kit from New England Nuclear-Dupont, Mississauga, ON, Canada). The enzymatic activity of renin is expressed in ng of angiotensin I generated (/mL/2 h). The extent of inhibition of the reaction is determined from the amount of angiotensin I generated in reference to a control prepared without inhibitor. Nonlinear regression analysis is used to calculate the IC50 values, i.e. the molar concentration of the test compound required to cause a 50% inhibition of the enzyme activity.

IC50 [nM] | SMILES
2.5 | CC(C)C[C@H](O)[C@H](O)[C@H](CC1CCCCC1)NC(=O)[C@@H](CC(=O)N(CC(=O)N(C)CCc1ccccn1)Cc1ccccc1)Cc1cscn1 [Compound 53, N^4-benzyl-N^4 -{2-{methyl[2-(2-pyridinyl)ethyl]amino}-2-oxoethyl}-N^1-[1(S)-(cyclohexylmethyl)-2(R),3(S)-dihydroxy-5-methylhexyl]-2(R)-(4-thiazolylmethyl)butanediamide]
3.5 | CC(C)C[C@H](O)[C@H](O)[C@H](CC1CCCCC1)NC(=O)[C@@H](CC(=O)N(CC(=O)N(C)CCc1ccccn1)Cc1ccccc1)Cc1nccs1 [Compound 41, N^4-benzyl-N^4 -{2-{methyl[2-(2-pyridinyl)ethyl]amino}-2-oxoethyl}-N^1-[1(S)-(cyclohexylmethyl)-2(R),3(S)-dihydroxy-5-methylhexyl]-2(S)-(2-thiazolylmethyl)butanediamide]
34 | CC(C)C[C@H](O)[C@H](O)[C@H](CC1CCCCC1)NC(=O)[C@@H](CC(=O)N(CC(=O)N(C)CCc1ccccn1)Cc1ccccc1)CC1CC1 [Compound 12, N^4-benzyl-N^4 -{2-{methyl[2-(2-pyridinyl)ethyl]amino}-2-oxoethyl}-N^1-[1(S)-(cyclohexylmethyl)-2(R),3(S)-dihydroxy-5-methylhexyl]-2(R)-(cyclopropylmethyl)butanediamide]
1 | CC(C)C[C@H](O)[C@H](O)[C@H](CC1CCCCC1)NC(=O)[C@@H](CC(=O)N(CC(=O)N(C)CCc1ccccn1)CC1CCCCCC1)Cc1csc(N)n1 [Compound 81, N^4-(cycloheptylmethyl)-N^4 -{2-{methyl[2-(2-pyridinyl)ethyl]amino}-2-oxoethyl}-N^1-[1(S)-(cyclohexylmethyl)-2(R),3(S)-dihydroxy-5-methylhexyl]-2(R)-[(2-amino-4-thiazolyl)-methyl]butanediamide]
68 | CC(C)C[C@H](O)[C@H](O)[C@H](CC1CCCCC1)NC(=O)[C@@H](CC(=O)N(CC(=O)N(C)CCc1ccncc1)Cc1ccccc1)CC1CC1 [Compound 29, N^4-benzyl-N^4 -{2-{methyl[2-(4-pyridinyl)ethyl]amino}-2-oxoethyl}-N^1-[1(S)-(cyclohexylmethyl)-2(R)3(S)-dihydroxy-5-methylhexyl]-2(R)-(cyclopropylmethyl)butanediamide]
66 | CON(C)C(=O)CN(Cc1ccccc1)C(=O)C[C@@H](CC1CC1)C(=O)N[C@@H](CC1CCCCC1)[C@@H](O)[C@@H](O)CC(C)C [Compound 8, N^4-benzyl-N^4 -{2-[(methoxy)methylamino]-2-oxoethyl}-N^1-[1(S)-(cyclohexylmethyl)-2(R),3(S)-dihydroxy-5-methylhexyl]-2(R)-(cyclopropylmethyl)butanediamide]

Second part, the compound before the results:

SMILES | IC50 [nM]
CC(C)C[C@H](O)[C@H](O)[C@H](CC1CCCCC1)NC(=O)[C@@H](CC(=O)N(CCCc1ccccc1)CC(=O)N(C)C)CC1CC1 [Compound 4, N^4-[2-(dimethylamino)-2-oxoethyl]-N^4-(3-phenylpropyl)-N^1-[1(S)-(cyclohexylmethyl)-2(R),3(S)-dihydroxy-5-methylhexyl]-2(R)-(cyclopropylmethyl)butanediamide] | 220
CC(C)C[C@H](O)[C@H](O)[C@H](CC1CCCCC1)NC(=O)[C@@H](CC(=O)N(CCc1ccccc1)CC(=O)N(C)C)CC1CC1 [Compound 3, N^4-[2-(dimethylamino)-2-oxoethyl]-N^4-(2-phenylethyl)-N^1-[1(S)-(cyclohexylmethyl)-2(R),3(S)-dihydroxy-5-methylhexyl]-2(R)-(cyclopropylmethyl)butanediamide] | 59
CC(C)C[C@H](O)[C@H](O)[C@H](CC1CCCCC1)NC(=O)[C@@H](CC(=O)N(CC(=O)N(C)C)Cc1cccc2ccccc12)CC1CC1 [Compound 9, N^4-[2-(dimethylamino)-2-oxoethyl]-N^4-(1-naphthylmethyl)-N^1-[1(S)-(cyclohexylmethyl)-2(R),3(S)-dihydroxy-5-methylhexyl]-2(R)-(cyclopropylmethyl)butanediamide] | 66
CC(C)C[C@H](O)[C@H](O)[C@H](CC1CCCCC1)NC(=O)[C@@H](CC(=O)N(CC(=O)N(C)C)[C@@H](C)c1ccccc1)Cc1csc(N)n1 [Compound 28, N^4-[2-(dimethylamino)-2-oxoethyl]-N^4-[1(S)-phenylethyl]-N^1-[1(S)-(cyclohexylmethyl)-2(R),3(S)-dihydroxy-5-methylhexyl]-2(R)-[(2-amino-4-thiazolyl)methyl]butanediamide] | 1.3
COCOC1CCN(C(=O)CN(CC2CCCCC2)C(=O)C[C@@H](Cc2csc(N)n2)C(=O)N[C@@H](CC2CCCCC2)[C@@H](O)[C@@H](O)CC(C)C)CC1 [Compound 62, N^4 -{2-[4-(methoxymethoxy)piperidinyl]-2-oxoethyl}-N^4-(cyclohexylmethyl)-N^1-[1(S)-(cyclohexylmethyl)-2(R),3(S)-dihydroxy-5-methylhexyl]-2(R)-[(2-amino-4-thiazolyl)methyl]-butanediamide] | 3
CC(C)C[C@H](O)[C@H](O)[C@H](CC1CCCCC1)NC(=O)[C@@H](CC(=O)N(CC(=O)N(C)C)C[C@@H](C)c1ccccc1)Cc1csc(N)n1 [Compound 61, N^4-[2-(dimethylamino)-2-oxoethyl]-N^4-[2(S)-phenylpropyl]-N^1-[1(S)-(cyclohexylmethyl)-2(R),3(S)-dihydroxy-5-methylhexyl]-2(R)-[(2-amino-4-thiazolyl)methyl]-butanediamide] | 3.5
CC(C)C[C@H](O)[C@H](O)[C@H](CC1CCCCC1)NC(=O)[C@@H](CC(=O)N(CC(=O)N(C)C)[C@@H](C)c1ccccc1)CC1CC1 [Compound 17, N^4-[2-(dimethylamino)-2-oxoethyl]-N^4-[1(S)-phenylethyl]-N^1-[1(S)-(cyclohexylmethyl)-2(R),3(S)-dihydroxy-5-methylhexyl]-2(R)-(cyclopropylmethyl)butanediamide] | 34
CC(C)C[C@H](O)[C@H](O)[C@H](CC1CCCCC1)NC(=O)[C@@H](CC(=O)N(CC(=O)N(C)C)Cc1ccccn1)CC1CC1 [Compound 13, N^4-[2-(dimethylamino)-2-oxoethyl]-N^4-(2-pyridinylmethyl)-N^1-[1(S)-(cyclohexylmethyl)-2(R),3(S)-dihydroxy-5-methylhexyl]-2(R)-(cyclopropylmethyl)butanediamide] | 120
CC(C)C[C@H](O)[C@H](O)[C@H](CC1CCCCC1)NC(=O)[C@@H](CC(=O)N(CC(=O)N(C)C)[C@@H](C)c1cccc2ccccc12)CC1CC1 [Compound 18, N^4-[2-(dimethylamino)-2-oxoethyl]-N^4-[1(S)-(1-naphthylethyl)]-N^1-[1(S)-(cyclohexylmethyl)-2(R),3(S)-dihydroxy-5-methylhexyl]-2(R)-(cyclopropylmethyl)butanediamide] | 170
CC(C)C[C@H](O)[C@H](O)[C@H](CC1CCCCC1)NC(=O)[C@@H](CC(=O)N(CC(=O)N(C)C)[C@@H](C)c1ccccc1)Cc1c[nH]cn1 [Compound 27, N^4-[2-(dimethylamino)-2-oxoethyl]-N^4-(1(S)-phenylethyl]-N^1-[1(S)-(cyclohexylmethyl)-2(R),3(S)-dihydroxy-5-methylhexyl]-2(R)-(1H-imidazol-4-ylmethyl)butanediamide] | 6
CC(C)C[C@H](O)[C@H](O)[C@H](CC1CCCCC1)NC(=O)[C@@H](CC(=O)N(CC(=O)N(C)CCc1cccnc1)CC1CCCCC1)Cc1csc(N)n1 [Compound 76, N^4-(cyclohexylmethyl)-N^4 -{2-{methyl[2-(3-pyridinyl)ethyl]-amino}-2-oxoethyl}-N^1-[1(S)-(cyclohexylmethyl)-2(R),3(S)-dihydroxy-5-methylhexyl]-2(R)-[(2-amino-4-thiazolyl)methyl]butanediamide] | 0.4
CC(C)C[C@H](O)[C@H](O)[C@H](CC1CCCCC1)NC(=O)[C@@H](CC(=O)N(CC(=O)N(C)C)CC1CCCCC1)Cc1ccccn1 [Compound 68, N^4-(cyclohexylmethyl)-N^4-[2-(dimethylamino)-2-oxoethyl]-N^1-[1(S)-(cyclohexylmethyl)-2(R),3(S)-dihydroxy-5-methylhexyl]-2(R)-(2-pyridinylmethyl)butanediamide] | 4
CC(C)C[C@H](O)[C@H](O)[C@H](CC1CCCCC1)NC(=O)[C@@H](CC(=O)N(CC(=O)N(C)C)CC1CCCCC1)Cc1cscn1 [Compound 36, N^4-(cyclohexylmethyl)-N^4-[2-(dimethylamino)-2-oxoethyl]-N^1-[1(S)-(cyclohexylmethyl)-2(R),3(S)-dihydroxy-5-methylhexyl]-2(R)-(4-thiazolylmethyl)butanediamide] | 1.5
CC(C)C[C@H](O)[C@H](O)[C@H](CC1CCCCC1)NC(=O)[C@@H](CC(=O)N(CC(N)=O)Cc1ccccc1)CC1CC1 [Compound 7, N^4-(2-amino-2-oxoethyl)-N^4-benzyl-N^1-[1(S)-(cyclohexylmethyl)-2(R),3(S)-dihydroxy-5-methylhexyl]-2(R)-(cyclopropylmethyl)-butanediamide] | 395
